Reference: US12276657B2, “Detection of PAR in the CSF of patients with Parkinson's disease” (The Johns Hopkins University, priority 2017, dated 2025)
One block for each compound: values may come before it. Residues, ends and D or L forms follow the SMILES beside them. *: point of attachment. Cbz = O=C(OCc1ccccc1)*; CH2F = FC*

Experiments:
primary cortical neurons = test: Cell death of primary cortical neurons, Hoechst and propidium iodide staining; type: cell-based, mouse; conditions: for α-syn PFF toxicity (cell death, FIGS. 47 and 48): pre-treated 1 h: ABT-888 10 μM, Z-VAD 20 μM, Nec-1 20 μM, 3-MA 500 μM, α-syn PFF 14 days; for α-syn PFF-mediated cell death (PI staining): inhibitor pre-incubated 1 h (ABT-888 10 μM, AG-014699 1 μM, BMN 673 10 μM), α-syn PFF 5 μg/ml 14 days
Procedure: SH-SYSY cells (ATCC) were cultured in DMEM containing 10% fetal bovine serum and penicillin/streptomycin at 37° C. under 5% CO2. The cells were transfected using PolyFect reagent (Qiagen) according to the manufacturer's instructions. Primary cortical neurons from WT or PARP1 KO embryos were prepared. Briefly, the primary cortical neurons were cultured at embryonic day 16 in neurobasal media supplemented with B-27, 0.5 mM L-glutamine, penicillin and streptomycin (Invitrogen, Grand Island, NY). The neurons were replaced to fresh medium every 3-4 days. ABT-888 (10 μM), AG-014699 (1 μM), BMN 673 (10 μM), Z-VAD (20 μM), Nec-1 (20 μM) or 3-MA (500 μM) was pretreated to neurons 1 h before α-syn PFF treatment. α-syn PFF were added at 7 days in vitro (DIV) and further incubated for indicated times followed by cell death assay or biochemical experiments. Primary neurons were infected with AAV2-control sgRNA or AAV2-PARP1 sgRNA (ViGene Bioscineces, Rockville, MD, USA), and AAV-α-syn WT or AAV-α-syn A53T at DIV 4-5.
Percent of cell death was determined by staining with 7 μM Hoechst 33342 and 2 μM propidium iodide (PI) (Invitrogen, Carlsbas, CA). Images were taken and counted by Zeiss microscope equipped with automated computer assisted software (Axiovision 4.6, Carl Zeiss, Dublin, CA, USA).

α-syn [1] = test: α-syn aggregation and PARP activation in primary cortical neurons transduced with AAV-α-syn (NMDA or PAR delivery); type: cell-based, mouse; conditions: for NMDA-induced PARP activation / NMDA-induced α-syn aggregation: 10 μM ABT-888 or 1 μM AG-014699 1 h, then 500 μM NMDA 5 min
PARP = target: T1, PARP (Mus musculus, UniProt P11103); test: α-syn PFF-induced PARP activation (PAR accumulation) in primary cortical neurons, western blot; type: cell-based; conditions: inhibitor pre-incubated 1 h (ABT-888 10 μM, AG-014699 1 μM, BMN 673 10 μM), then α-syn PFF
T1 construct: Primary cortical neurons from WT or PARP1 KO embryos were prepared; endogenous in cells; host or cells: primary mouse cortical neurons (embryonic day 16)

SH-SYSY cells = test: α-syn aggregation and PARP activation in SH-SYSY cells transfected with α-syn (MNNG or PAR delivery); type: cell-based; conditions: for MNNG-induced PARP activation / MNNG-induced α-syn aggregation: 10 μM ABT-888 or 1 μM AG-014699 1 h, then 50 μM MNNG 15 min
α-syn [2] = test: In vitro fibrillization of recombinant α-syn (immunoblot, thioflavin T, TEM); type: biochemical, mouse; conditions: for α-syn fibrillization with other polymer or monomer: 5 nM, 36 h
WT mice = test: Intrastriatal injection of PAR-α-syn PFF, α-syn PFF or PAR in WT mice; type: in vivo, mouse
Excerpt: There is no significant loss of DA neuron contralateral to the injection side at any time point (FIGS. 81 and 82).

[3] = WT cultures, 500 μM NMDA 5 min, 6 h after

T1 sequence (P11103 whole entry): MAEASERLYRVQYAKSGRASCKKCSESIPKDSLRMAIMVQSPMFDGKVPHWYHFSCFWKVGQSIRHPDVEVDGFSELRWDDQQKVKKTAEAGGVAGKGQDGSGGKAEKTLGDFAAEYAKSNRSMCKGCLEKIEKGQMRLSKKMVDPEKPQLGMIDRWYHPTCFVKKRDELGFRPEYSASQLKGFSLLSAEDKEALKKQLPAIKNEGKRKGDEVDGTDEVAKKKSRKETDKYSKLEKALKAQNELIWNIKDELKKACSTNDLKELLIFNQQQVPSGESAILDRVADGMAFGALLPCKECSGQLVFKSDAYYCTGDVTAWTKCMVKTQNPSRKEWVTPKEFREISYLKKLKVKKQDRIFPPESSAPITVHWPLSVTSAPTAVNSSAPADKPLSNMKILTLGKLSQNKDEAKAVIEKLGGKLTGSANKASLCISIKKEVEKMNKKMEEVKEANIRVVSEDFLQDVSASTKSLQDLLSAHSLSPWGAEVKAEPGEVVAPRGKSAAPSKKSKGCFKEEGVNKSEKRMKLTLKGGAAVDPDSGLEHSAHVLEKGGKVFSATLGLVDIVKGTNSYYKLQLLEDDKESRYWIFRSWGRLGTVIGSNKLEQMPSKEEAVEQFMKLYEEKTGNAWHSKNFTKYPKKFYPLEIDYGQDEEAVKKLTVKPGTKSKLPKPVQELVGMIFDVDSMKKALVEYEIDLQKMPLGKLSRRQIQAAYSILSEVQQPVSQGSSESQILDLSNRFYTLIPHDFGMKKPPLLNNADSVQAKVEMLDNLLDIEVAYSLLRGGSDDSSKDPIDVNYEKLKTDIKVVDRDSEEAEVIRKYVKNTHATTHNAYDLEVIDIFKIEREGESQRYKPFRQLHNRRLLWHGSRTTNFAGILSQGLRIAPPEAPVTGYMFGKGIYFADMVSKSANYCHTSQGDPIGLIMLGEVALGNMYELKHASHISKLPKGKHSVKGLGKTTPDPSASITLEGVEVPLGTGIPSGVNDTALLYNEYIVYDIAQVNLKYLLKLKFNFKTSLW

Compound: COC(=O)C[C@H](NC(=O)[C@H](C)NC(=O)[C@@H](NC(=O)OCc1ccccc1)C(C)C)C(=O)CF [Z-VAD-FMK] (Cbz-Val-Ala-Asp(OMe)-CH2F)
α-syn PFF toxicity (cell death, FIGS. 47 and 48) (primary cortical neurons): partially reduces α-syn PFF toxicity
α-syn PFF toxicity (cell death, FIGS. 47 and 48) (primary cortical neurons; listed as ZVAD): modest neuroprotection

Compound: CN[C@H](CC(=O)O)C(=O)O [NMDA, N-methyl-D-aspartate]
activation of PARP, PAR immunoblot (α-syn [1]; [3]): leads to activation of PARP
aggregation of α-syn after NMDA (α-syn [1]; [3]): concomitant aggregation of α-syn

Compound: C[C@]1(c2nc3c(C(N)=O)cccc3[nH]2)CCCN1 [ABT-888, veliparib]
α-syn PFF-mediated PARP activation (PARP): prevents
α-syn PFF-mediated cell death (PI staining) (primary cortical neurons): prevents
α-syn PFF toxicity (cell death, FIGS. 47 and 48) (primary cortical neurons): prevents α-syn PFF toxicity
NMDA-induced PARP activation (α-syn [1]): prevent
NMDA-induced α-syn aggregation (α-syn [1]): prevent
MNNG-induced PARP activation (SH-SYSY cells): prevent
MNNG-induced α-syn aggregation (SH-SYSY cells): prevent

α-syn PFF-mediated PARP activation (PARP): prevents
Compound: CNCc1ccc(-c2[nH]c3cc(F)cc4c3c2CCNC4=O)cc1 [AG-014699, Rucaparib]
α-syn PFF-mediated cell death (PI staining) (primary cortical neurons): prevents
NMDA-induced PARP activation (α-syn [1]): prevent
NMDA-induced α-syn aggregation (α-syn [1]): prevent
MNNG-induced PARP activation (SH-SYSY cells): prevent
MNNG-induced α-syn aggregation (SH-SYSY cells): prevent

Compound: Nc1ncnc2c1ncn2[C@@H]1O[C@H](COP(=O)(O)OP(=O)(O)OC[C@H]2OC(O)[C@H](O)[C@@H]2O)[C@@H](O)[C@H]1O (some centres unmarked) [ADP ribose monomer, ADP ribose]
α-syn fibrillization with other polymer or monomer (α-syn [2]; 37° C.): had no effect on α-syn fibrillization

Compound: PolyA
α-syn fibrillization with other polymer or monomer (α-syn [2]; 37° C.): had no effects on α-syn fibrillization

Compound: Poly(ADP-ribose) [PAR]
neuronal cell death by PAR itself (primary cortical neurons; 20 nM, 14 days): does not cause significant cell death
earliest time different molecular weight forms of α-syn observed (α-syn [2]; 5 nM PAR, 37° C.): 24 h
fibrillization of α-syn, immunoblot (α-syn [2]; 5 nM PAR, 37° C., agitated): markedly accelerated
effect of temperature on α-syn fibrillization (α-syn [2]; 5 nM PAR, indicated temperatures, 72 h): causes the fibrillization of α-syn at temperatures that are not permissive for α-syn fibrillization in the absence of PAR
PAR concentration of peak α-syn aggregation (α-syn [2]; 36 hours): 5 nM
α-syn fibrillization at 1 nM PAR (α-syn [2]; 36 hours): capable of enhancing α-syn fibrillization
α-syn fibrillization at 20 nM PAR (α-syn [2]; 36 hours): does not appreciably increase α-syn fibrillization
α-syn fibrils, TEM (α-syn [2]; in the presence of PAR, 37° C.): extensively fibrillated at 12 hours
thioflavin T fluorescence, PAR alone (α-syn [2]; without α-syn): has no effect on thioflavin T fluorescence
fibrillization of α-syn, thioflavin T fluorescence (α-syn [2]; α-syn with PAR): accelerates the fibrillization of α-syn
aggregation of α-syn after exogenous PAR via Bioporter (α-syn [1]; WT and PARP-1 KO cultures transduced with AAV-α-syn): increases the aggregation of α-syn
aggregation of α-syn after exogenous PAR (SH-SYSY cells; SH-SYSY WT and SH-SYSY PARP-1 KO cultures): increased the aggregation of α-syn
DA concentration in the contralateral striatum, HPLC (WT mice; 1, 3 and 6 months): no significant difference of DA concentration
DA neuron number after PAR injection by itself (WT mice; 1, 3 and 6 months): has no effect on DA neuron number
pole test (WT mice; 3 months): no significant deficits

Compound: CN1C(=O)C(Cc2c[nH]c3ccccc23)NC1=S (centres unmarked) [Necrostatin-1]
α-syn PFF toxicity (cell death, FIGS. 47 and 48) (primary cortical neurons): had no effect

Compound: Cn1cnc(N)c2ncnc1-2 [3-Methyladenine]
α-syn PFF toxicity (cell death, FIGS. 47 and 48) (primary cortical neurons): had no effect

Compound: Cn1ncnc1[C@H]1c2n[nH]c(=O)c3cc(F)cc(c23)N[C@@H]1c1ccc(F)cc1 [BMN 673, Talazoparib]
α-syn PFF-mediated PARP activation (PARP): prevents
α-syn PFF-mediated cell death (PI staining) (primary cortical neurons): prevents
